Where two headings read alike, the source gives them in different places.
Tests used:
human α4β2 = human α4β2 (Homo sapiens, UniProt P17787+P43681); assay: Competition binding to human α4β2 receptors in membrane preparations; conditions: membranes, [3H]-nicotine competition; Ki by Cheng-Prusoff; read-out: human α4β2 Ki
Description: SH-EP1/human α4β2 (Eaton et al., 2003), SH-EP1/human α4β4 (Gentry et al., 2003), SH-EP1/α6β3β4α5 (Grinevich et al., 2005), TE671/RD and SH-SY5Y cell lines (obtained from Dr. Ron Lukas, Barrow Neurological Institute) were maintained in proliferative growth phase in Dulbecco's modified Eagle's medium (Gibco/BRL) with 10% horse serum (Gibco BRL), 5% fetal bovine serum (HyClone, Logan Utah), 1 mM sodium pyruvate, 4 mM L-glutamine. For maintenance of stable transfectants, the α4β2 and α4β4 cell media was supplemented with 0.25 mg/mL zeocin and 0.13 mg/mL hygromycin B. Selection was maintained for the α6β3β4α5 cells with 0.25 mg/mL of zeocin, 0.13 mg/mL of hygromycin B, 0.4 mg/mL of geneticin, and 0.2 mg/mL of blasticidin. HEK/human α7/RIC3 cells (obtained from J. Lindstrom, U. Pennsylvania) were maintained in proliferative growth phase in Dulbecco's modified Eagle's medium (Gibco/BRL) with 10% fetal bovine serum (HyClone, Logan Utah), 1 mM sodium pyruvate, 4 mM L-glutamine, 0.4 mg/mL geneticin; 0.2 mg/ml hygromycin B.
(§1) Preparation of membranes from rat tissues. Rat cortices were obtained from Analytical Biological Services, Incorporated (ABS, Wilmington, Del.). Tissues were dissected from female Sprague-Dawley rats, frozen and shipped on dry ice. Tissues were stored at −20° C. until needed for membrane preparation. Cortices from 10 rats were pooled and homogenized by Polytron (Kinematica GmbH, Switzerland) in 10 volumes (weight:volume) of ice-cold preparative buffer (KCl, 11 mM; KH2PO4, 6 mM; NaCl 137 mM; Na2HPO4 8 mM; HEPES (free acid), 20 mM; iodoacetamide, 5 mM; EDTA, 1.5 mM; 0.1 mM PMSF pH 7.4). The resulting homogenate was centrifuged at 40,000 g for 20 minutes at 4° C. and the resulting pellet was resuspended in 20 volumes of ice-cold water. After 60-minute incubation at 4° C., a new pellet was collected by centrifugation at 40,000 g for 20 minutes at 4° C. The final pellet was resuspended in preparative buffer and stored at −20° C. On the day of the assay, tissue was thawed, centrifuged at 40,000 g for 20 minutes and then resuspended in PBS (Dulbecco's Phosphate Buffered Saline, Life Technologies, pH 7.4) to a final concentration of 2-3 mg protein/mL. Protein concentrations were determined using the Pierce BCA Protein Assay kit (Pierce Biotechnology, Rockford, Ill.), with bovine serum albumin as the standard. Preparation of membranes from clonal cell lines. Cells were harvested in ice-cold PBS, pH 7.4, then homogenized with a polytron (Brinkmann Instruments, Westbury, N.Y.). Homogenates were centrifuged at 40,000 g for 20 minutes (4° C.). The pellet was resuspended in PBS and protein concentration determined using the Pierce BCA Protein Assay kit (Pierce Biotechnology, Rockford, Ill.).
(§2) Competition binding to receptors in membrane preparations. Binding to nicotinic receptors was assayed on membranes using standard methods adapted from published procedures (Lippiello and Fernandes, 1986; Davies et al., 1999). In brief, membranes were reconstituted from frozen stocks (approximately 0.2 mg protein) and incubated for 2 h on ice in […] assay buffer (PBS) in the presence of competitor compound (0.001 nM to […]) and radioligand. [^3H]-nicotine (L-(−)-[N-methyl-3H]-nicotine, 69.5 Ci/mmol, Perkin-Elmer Life Sciences) was used for human α4β2 binding studies. [^3H]-epibatidine (52 Ci/mmol, Perkin-Elmer Life Sciences) was used for binding studies at the other receptor subtypes. Incubation was terminated by rapid filtration on a multimanifold tissue harvester (Brandel, Gaithersburg, Md.) using GF/B filters presoaked in 0.33% polyethyleneimine (w/v) to reduce non-specific binding. Filters were washed 3 times and the radioactivity retained was determined by liquid scintillation counting.
Binding data analysis. Binding data were expressed as percent total control binding. Replicates for each point were averaged and plotted against the log of drug concentration. […]

Rat α4β2 = target: T1, Rat α4β2 (Rattus norvegicus, UniProt P09483+P12390); assay: Competition binding to rat α4β2 receptors in membrane preparations
T1 construct: Preparation of membranes from rat tissues; Rat cortices were obtained from Analytical Biological Services; tissue Analytical Biological Services, Incorporated (ABS, Wilmington, Del.); host or cells: rat cortex membranes (female Sprague-Dawley)
Description: as §1, §2
Binding data analysis. Binding data were expressed as percent total control binding. Replicates for each point were averaged and plotted against the log of drug concentration. The IC50 (concentration of the compound that produces 50% inhibition of binding) was determined by least squares non-linear regression using GraphPad Prism software (GraphPAD, San Diego, Calif.). Ki was calculated using the Cheng-Prusoff equation (Cheng and Prusoff, 1973).

[1] = membranes, [3H]-epibatidine competition, Ki by Cheng-Prusoff, read-out: Rat α4β2 Ki

SMILES: CN1CC2CN(c3cccc(Cl)c3Cl)CC(C1)O2
- Ki (human α4β2): 5200 nM

SMILES: Clc1cccc(N2CC3CNCC(C2)O3)c1Cl [3-(2,3-dichlorophenyl)-9-oxa-3,7-diazabicyclo[3.3.1]nonane]
- Ki (human α4β2): 9600 nM

SMILES: Fc1cccc(N2CC3CNCC(C2)O3)c1F [3-(2,3-difluorophenyl)-9-oxa-3,7-diazabicyclo[3.3.1]nonane]
- Ki (human α4β2): 260 nM

SMILES: CN1CC2CN(c3cnc(Br)nc3)CC(C1)O2 [3-(2-bromopyrimidin-5-yl)-7-methyl-9-oxa-3,7-diazabicyclo[3.3.1]nonane]
- Ki (human α4β2): 2000 nM

SMILES: CN1CC2CN(c3cc(F)cc(F)c3)CC(C1)O2 [3-(3,5-difluorophenyl)-7-methyl-9-oxa-3,7-diazabicyclo[3.3.1]nonane]
- Ki (Rat α4β2; [1]): 510 nM
- Ki (human α4β2): 86 nM

SMILES: Fc1cc(F)cc(N2CC3CNCC(C2)O3)c1 [3-(3,5-difluorophenyl)-9-oxa-3,7-diazabicyclo[3.3.1]nonane]
- Ki (Rat α4β2): 97 nM
- Ki (human α4β2): 27 nM

SMILES: COc1cccc(N2CC3CN(C)CC(C2)O3)c1 [3-(3-methoxyphenyl)-7-methyl-9-oxa-3,7-diazabicyclo[3.3.1]nonane]
- Ki (human α4β2): 1600 nM

SMILES: CN1CC2CN(c3cnccc3Cl)CC(C1)O2 [3-(4-chloropyridin-3-yl)-7-methyl-9-oxa-3,7-diazabicyclo[3.3.1]nonane]
- Ki (human α4β2): 180 nM

SMILES: Clc1ccncc1N1CC2CNCC(C1)O2 [3-(4-chloropyridin-3-yl)-9-oxa-3,7-diazabicydo[3.3.1]nonane]
- Ki (human α4β2): 250 nM

SMILES: N#Cc1ccncc1N1CC2CNCC(C1)O2 [3-(4-cyanopyridin-3-yl)-9-oxa-3,7-diazabicyclo[3.3.1]nonane]
- Ki (human α4β2): 860 nM

SMILES: COc1ccncc1N1CC2CNCC(C1)O2 [3-(4-methoxypyridin-3-yl)-9-oxa-3,7-diazabicyclo[3.3.1]nonane]
- Ki (Rat α4β2; [1]): 580 nM
- Ki (human α4β2): 120 nM

SMILES: CN1CC2CN(c3cncc(Oc4ccccc4Cl)c3)CC(C1)O2 [3-(5-(2-chlorophenoxy)pyridin-3-yl)-7-methyl-9-oxa-3,7-diazabicyclo[3.3.1]nonane]
- Ki (Rat α4β2; [1]): 1200 nM
- Ki (human α4β2): 84 nM

SMILES: CN1CC2CN(c3cncc(Oc4ccc(Cl)c(Cl)c4)c3)CC(C1)O2 [3-(5-(3,4-dichlorophenoxy)pyridin-3-yl)-7-methyl-9-oxa-3,7-diazabicyclo[3.3.1]nonane]
- Ki (Rat α4β2; [1]): 400 nM
- Ki (human α4β2): 62 nM

SMILES: Brc1cncc(N2CC3CNCC(C2)O3)c1 [3-(5-bromopyridin-3-yl)-9-oxa-3,7-diazabicydo[3.3.1]nonane]
- Ki (Rat α4β2): 2.7 nM
- Ki (human α4β2): 2.1 nM

SMILES: CN1CC2CN(c3cncc(Cl)c3)CC(C1)O2 [3-(5-chloropyridin-3-yl)-7-methyl-9-oxa-3,7-diazabicyclo[3.3.1]nonane]
- Ki (Rat α4β2; [1]): 1600 nM
- Ki (human α4β2): 77 nM

SMILES: CN1CC2CN(c3cncc(C#N)c3)CC(C1)O2 [3-(5-cyanopyridin-3-yl)-7-methyl-9-oxa-3,7-diazabicyclo[3.3.1]nonane]
- Ki (human α4β2): 260 nM

SMILES: COc1cc(N2CC3CNCC(C2)O3)cnc1Cl [3-(5-methoxy-6-chloropyridin-3-yl)-9-oxa-3,7-diazabicyclo[3.3.1]nonane]
- Ki (Rat α4β2): 1 nM
- Ki (human α4β2): 0.4 nM

SMILES: CN1CC2CN(c3ccc(Cl)nn3)CC(C1)O2 [3-(6-chloropyridazin-3-yl)-7-methyl-9-oxa-3,7-diazabicyclo[3.3.1]nonane]
- Ki (human α4β2): 29000 nM

SMILES: CN(C)c1ccc(N2CC3CNCC(C2)O3)cn1 [3-(6-dimethylaminopyridin-3-yl)-9-oxa-3,7-diazabicyclo[3.3.1]nonane]
- Ki (human α4β2): 1200 nM

SMILES: COc1ccc(N2CC3CNCC(C2)O3)cn1 [3-(6-methoxypyridin-3-yl)-9-oxa-3,7-diazabicyclo[3.3.1]nonane]
- Ki (human α4β2): 200 nM

SMILES: c1ccc(-c2ccc(N3CC4CNCC(C3)O4)nn2)cc1 [3-(6-phenylpyridazin-3-yl)-9-oxa-3,7-diazabicyclo[3.3.1]nonane]
- Ki (human α4β2): 380 nM

SMILES: CN1CC2CN(c3ccc(C(F)(F)F)nc3)CC(C1)O2 [3-(6-trifluoromethyl-pyridin-3-yl)-7-methyl-9-oxa-3,7-diazabicyclo[3.3.1]nonane]
- Ki (human α4β2): 1000 nM

SMILES: CN1CC2CN(c3cncnc3)CC(C1)O2 [3-(pyrimidin-5-yl)-7-methyl-9-oxa-3,7-diazabicyclo[3.3.1]nonane]
- Ki (human α4β2): 270 nM

Source: patent US20110257168A1, “DERIVATIVES OF OXABISPIDINE AS NEURONAL NICOTINIC ACETYLCHOLINE RECEPTOR LIGANDS” (Targacept, Inc., priority 2008, published 2011)
